# Reference: patent publication EP0073505B1, “Benzo-heterocycles” (priority 1981, dated 1983)
# Test system: Meerschweinchen
# Test: Heart rate increase in the guinea pig, i.v.
# Type: in vivo
# Settings: selectivity Broncholyse vs. Herzfrequenzsteigerung
# Source text: Für die pharmakologischen Prüfungen werden die üblichen Testmethoden und Versuchstiere oder Organe verwendet. Pharmakologisch sind die erfindungsgemässen Verbindungen gegenüber Handelsprodukten der gleichen Indikation zum Teil sehr deutlich unterschieden. Neben einer guten Wirkungsdauer zeigt sich z.B. eine besonders deutliche Selektivität im Verhältnis Broncholyse zu Herzfrequenzsteigerung. So ist z. […] Günstig sind im allgemeinen auch die Resorptionsverhältnisse. So ist der Resorptionsquotient [formula] z.B. für die Verbindung 7 der Tabelle 3 nur 1,1, so dass die orale Wirkung praktisch ebenso gross ist wie die intravenöse. Die LD50-Werte liegen, z.B. an der Maus, so weit über der therapeutischen Dosis, dass eine günstige therapeutische Breite gegeben ist.
structure (smiles),measurement,value
CC[C@H](NC(C)C)[C@H](O)c1ccc(O)c2c1OCC(=O)N2 (relative stereo) [Beispiel 1],ED50 i.v. der Herzfrequenzsteigerung relative to ED50 i.v. der Broncholyse,mehr als zehnmal so gross
